Where a SMILES comes first, the peptide text is derived from it.
Target: Transcriptional coactivator YAP1/Transcriptional enhancer factor TEF-1 (Homo sapiens) (UniProt P46937+P28347)
Experiment: Inhibition of YAP/ GST-TEAD1 (unknown origin) interaction at 50 uM by surface plasmon resonance assay
Assay type: protein assay

Transcriptional coactivator YAP1/Transcriptional enhancer factor TEF-1 (Homo sapiens), sequence (P28347 whole entry, looked up): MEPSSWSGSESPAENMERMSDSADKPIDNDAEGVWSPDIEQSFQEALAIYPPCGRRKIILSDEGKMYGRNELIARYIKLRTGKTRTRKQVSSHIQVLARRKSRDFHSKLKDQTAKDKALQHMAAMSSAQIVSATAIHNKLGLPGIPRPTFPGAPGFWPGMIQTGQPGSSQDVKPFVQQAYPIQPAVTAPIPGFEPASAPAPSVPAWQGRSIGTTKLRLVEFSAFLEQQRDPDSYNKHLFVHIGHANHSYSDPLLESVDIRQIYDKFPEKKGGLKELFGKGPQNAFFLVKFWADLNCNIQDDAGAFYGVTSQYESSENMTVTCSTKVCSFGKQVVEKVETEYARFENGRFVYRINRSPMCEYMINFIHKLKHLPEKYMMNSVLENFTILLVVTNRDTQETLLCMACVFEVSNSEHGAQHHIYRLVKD
Transcriptional coactivator YAP1/Transcriptional enhancer factor TEF-1 (Homo sapiens), sequence (P46937 whole entry, looked up): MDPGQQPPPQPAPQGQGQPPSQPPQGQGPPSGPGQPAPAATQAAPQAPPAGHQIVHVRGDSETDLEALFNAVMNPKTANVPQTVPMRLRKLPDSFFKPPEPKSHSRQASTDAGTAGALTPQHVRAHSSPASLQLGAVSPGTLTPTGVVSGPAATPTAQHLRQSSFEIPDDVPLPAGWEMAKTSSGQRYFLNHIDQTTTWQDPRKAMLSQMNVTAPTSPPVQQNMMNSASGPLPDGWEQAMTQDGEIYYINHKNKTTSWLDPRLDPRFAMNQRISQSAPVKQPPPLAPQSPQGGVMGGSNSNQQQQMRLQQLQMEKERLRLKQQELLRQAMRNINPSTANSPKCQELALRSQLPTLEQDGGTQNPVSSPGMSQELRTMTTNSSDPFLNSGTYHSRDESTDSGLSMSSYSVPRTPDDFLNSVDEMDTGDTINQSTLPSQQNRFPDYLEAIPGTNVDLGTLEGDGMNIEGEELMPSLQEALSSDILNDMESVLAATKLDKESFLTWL

Compound | inhibition
CSCC[C@H](NC(=O)[C@@H]1CCCN1C(=O)[C@@H](NC(=O)[C@@H](NC(=O)[C@H](CCC(N)=O)NC(C)=O)[C@@H](C)O)C(C)C)C(=O)N[C@@H](CCCNC(=N)N)C(=O)N[C@@H](CC(C)C)C(=O)N[C@@H](CCCNC(=N)N)C(=O)N[C@@H](CCCCN)C(=O)N[C@@H](CC(C)C)C(=O)N1CCC[C@H]1C(=O)N[C@@H](CC(=O)O)C(=O)N[C@@H](CO)C(=O)N[C@@H](Cc1ccccc1)C(=O)N[C@@H](Cc1ccccc1)C(=O)N[C@@H](CCCCN)C(=O)N1CCC[C@H]1C(=O)N1CCC[C@H]1C(=O)N[C@@H](CCC(=O)O)C(N)=O | 59%
CSCC[C@H](NC(=O)[C@@H]1CCCN1C(=O)[C@@H](NC(=O)[C@@H](NC(C)=O)[C@@H](C)O)C(C)C)C(=O)N[C@@H](CCCNC(=N)N)C(=O)N[C@@H](CC(C)C)C(=O)N[C@@H](CCCNC(=N)N)C(=O)N[C@@H](CCCCN)C(=O)N[C@@H](CC(C)C)C(=O)N1CCC[C@H]1C(=O)N[C@@H](CC(=O)O)C(=O)N[C@@H](CO)C(=O)N[C@@H](Cc1ccccc1)C(=O)N[C@@H](Cc1ccccc1)C(=O)N[C@@H](CCCCN)C(=O)N1CCC[C@H]1C(=O)N1CCC[C@H]1C(=O)N[C@@H](CCC(=O)O)C(N)=O | 60%
CSCC[C@H](NC(C)=O)C(=O)N[C@@H](CCCNC(=N)N)C(=O)N[C@@H](CC(C)C)C(=O)N[C@@H](CCCNC(=N)N)C(=O)N[C@@H](CCCCN)C(=O)N[C@@H](CC(C)C)C(=O)N1CCC[C@H]1C(=O)N[C@@H](CC(=O)O)C(=O)N[C@@H](CO)C(=O)N[C@@H](Cc1ccccc1)C(=O)N[C@@H](Cc1ccccc1)C(=O)N[C@@H](CCCCN)C(=O)N1CCC[C@H]1C(=O)N1CCC[C@H]1C(=O)N[C@@H](CCC(=O)O)C(N)=O (Ac-MRLRKLPDSFFKPPE-NH2) | 12%
CC(=O)N1CCC[C@H]1C(=O)N[C@@H](CCC(N)=O)C(=O)N[C@H](C(=O)N[C@H](C(=O)N1CCC[C@H]1C(=O)N[C@@H](C)C(=O)N[C@@H](CCCNC(=N)N)C(=O)N[C@@H](CC(C)C)C(=O)N[C@@H](CCCNC(=N)N)C(=O)N[C@@H](CCCCN)C(=O)N[C@@H](CC(C)C)C(=O)N1CCC[C@H]1C(=O)N[C@@H](CC(=O)O)C(=O)N[C@@H](CO)C(=O)N[C@@H](Cc1ccccc1)C(=O)N[C@@H](Cc1ccccc1)C(=O)N[C@@H](CCCCN)C(=O)N1CCC[C@H]1C(=O)N1CCC[C@H]1C(=O)N[C@@H](CCC(=O)O)C(N)=O)C(C)C)[C@@H](C)O (Ac-PQTVPARLRKLPDSFFKPPE-NH2) | 1.3%
CSCC[C@H](NC(=O)[C@@H]1CCCN1C(=O)[C@@H](NC(=O)[C@@H](NC(=O)[C@H](CCC(N)=O)NC(=O)[C@@H]1CCCN1C(C)=O)[C@@H](C)O)C(C)C)C(=O)N[C@@H](CCCNC(=N)N)C(=O)N[C@@H](C)C(=O)N[C@@H](CCCNC(=N)N)C(=O)N[C@@H](CCCCN)C(=O)N[C@@H](CC(C)C)C(=O)N1CCC[C@H]1C(=O)N[C@@H](CC(=O)O)C(=O)N[C@@H](CO)C(=O)N[C@@H](Cc1ccccc1)C(=O)N[C@@H](Cc1ccccc1)C(=O)N[C@@H](CCCCN)C(=O)N1CCC[C@H]1C(=O)N1CCC[C@H]1C(=O)N[C@@H](CCC(=O)O)C(N)=O (Ac-PQTVPMRARKLPDSFFKPPE-NH2) | 49%
CSCC[C@H](NC(=O)[C@@H]1CCCN1C(=O)[C@@H](NC(=O)[C@@H](NC(=O)[C@H](CCC(N)=O)NC(=O)[C@@H]1CCCN1C(C)=O)[C@@H](C)O)C(C)C)C(=O)N[C@@H](CCCNC(=N)N)C(=O)N[C@@H](CC(C)C)C(=O)N[C@@H](CCCNC(=N)N)C(=O)N[C@@H](CCCCN)C(=O)N[C@@H](C)C(=O)N1CCC[C@H]1C(=O)N[C@@H](CC(=O)O)C(=O)N[C@@H](CO)C(=O)N[C@@H](Cc1ccccc1)C(=O)N[C@@H](Cc1ccccc1)C(=O)N[C@@H](CCCCN)C(=O)N1CCC[C@H]1C(=O)N1CCC[C@H]1C(=O)N[C@@H](CCC(=O)O)C(N)=O (Ac-PQTVPMRLRKAPDSFFKPPE-NH2) | 0%
CSCC[C@H](NC(=O)[C@@H]1CCCN1C(=O)[C@@H](NC(=O)[C@@H](NC(=O)[C@H](CCC(N)=O)NC(=O)[C@@H]1CCCN1C(C)=O)[C@@H](C)O)C(C)C)C(=O)N[C@@H](CCCNC(=N)N)C(=O)N[C@@H](CC(C)C)C(=O)N[C@@H](CCCNC(=N)N)C(=O)N[C@@H](CCCCN)C(=O)N[C@@H](CC(C)C)C(=O)N1CCC[C@H]1C(=O)N[C@@H](CC(=O)O)C(=O)N[C@@H](C)C(=O)N[C@@H](Cc1ccccc1)C(=O)N[C@@H](Cc1ccccc1)C(=O)N[C@@H](CCCCN)C(=O)N1CCC[C@H]1C(=O)N1CCC[C@H]1C(=O)N[C@@H](CCC(=O)O)C(N)=O (Ac-PQTVPMRLRKLPDAFFKPPE-NH2) | 1.6%
CSCC[C@H](NC(=O)[C@@H]1CCCN1C(=O)[C@@H](NC(=O)[C@@H](NC(=O)[C@H](CCC(N)=O)NC(=O)[C@@H]1CCCN1C(C)=O)[C@@H](C)O)C(C)C)C(=O)N[C@@H](CCCNC(=N)N)C(=O)N[C@@H](CC(C)C)C(=O)N[C@@H](CCCNC(=N)N)C(=O)N[C@@H](CCCCN)C(=O)N[C@@H](CC(C)C)C(=O)N1CCC[C@H]1C(=O)N[C@@H](CC(=O)O)C(=O)N[C@@H](CO)C(=O)N[C@@H](C)C(=O)N[C@@H](Cc1ccccc1)C(=O)N[C@@H](CCCCN)C(=O)N1CCC[C@H]1C(=O)N1CCC[C@H]1C(=O)N[C@@H](CCC(=O)O)C(N)=O (Ac-PQTVPMRLRKLPDSAFKPPE-NH2) | 4%

The next lines start with the values.

inhibition | Compound
52% | CSCC[C@H](NC(=O)[C@@H]1CCCN1C(=O)[C@@H](NC(=O)[C@H](C)NC(=O)[C@H](CCC(N)=O)NC(=O)[C@@H]1CCCN1C(C)=O)C(C)C)C(=O)N[C@@H](CCCNC(=N)N)C(=O)N[C@@H](CC(C)C)C(=O)N[C@@H](CCCNC(=N)N)C(=O)N[C@@H](CCCCN)C(=O)N[C@@H](CC(C)C)C(=O)N1CCC[C@H]1C(=O)N[C@@H](CC(=O)O)C(=O)N[C@@H](CO)C(=O)N[C@@H](Cc1ccccc1)C(=O)N[C@@H](Cc1ccccc1)C(=O)N[C@@H](CCCCN)C(=O)N1CCC[C@H]1C(=O)N1CCC[C@H]1C(=O)N[C@@H](CCC(=O)O)C(N)=O
25% | CSCC[C@H](NC(=O)[C@@H]1CCCN1C(C)=O)C(=O)N[C@@H](CCCNC(=N)N)C(=O)N[C@@H](CC(C)C)C(=O)N[C@@H](CCCNC(=N)N)C(=O)N[C@@H](CCCCN)C(=O)N[C@@H](CC(C)C)C(=O)N1CCC[C@H]1C(=O)N[C@@H](CC(=O)O)C(=O)N[C@@H](CO)C(=O)N[C@@H](Cc1ccccc1)C(=O)N[C@@H](Cc1ccccc1)C(=O)N[C@@H](CCCCN)C(=O)N1CCC[C@H]1C(=O)N1CCC[C@H]1C(=O)N[C@@H](CCC(=O)O)C(N)=O (Ac-PMRLRKLPDSFFKPPE-NH2)
26% | CSCC[C@H](NC(=O)[C@@H]1CCCN1C(=O)[C@H](C)NC(=O)[C@@H](NC(=O)[C@H](CCC(N)=O)NC(=O)[C@@H]1CCCN1C(C)=O)[C@@H](C)O)C(=O)N[C@@H](CCCNC(=N)N)C(=O)N[C@@H](CC(C)C)C(=O)N[C@@H](CCCNC(=N)N)C(=O)N[C@@H](CCCCN)C(=O)N[C@@H](CC(C)C)C(=O)N1CCC[C@H]1C(=O)N[C@@H](CC(=O)O)C(=O)N[C@@H](CO)C(=O)N[C@@H](Cc1ccccc1)C(=O)N[C@@H](Cc1ccccc1)C(=O)N[C@@H](CCCCN)C(=O)N1CCC[C@H]1C(=O)N1CCC[C@H]1C(=O)N[C@@H](CCC(=O)O)C(N)=O (Ac-PQTAPMRLRKLPDSFFKPPE-NH2)
33% | CSCC[C@H](NC(=O)[C@H](C)NC(=O)[C@@H](NC(=O)[C@@H](NC(=O)[C@H](CCC(N)=O)NC(=O)[C@@H]1CCCN1C(C)=O)[C@@H](C)O)C(C)C)C(=O)N[C@@H](CCCNC(=N)N)C(=O)N[C@@H](CC(C)C)C(=O)N[C@@H](CCCNC(=N)N)C(=O)N[C@@H](CCCCN)C(=O)N[C@@H](CC(C)C)C(=O)N1CCC[C@H]1C(=O)N[C@@H](CC(=O)O)C(=O)N[C@@H](CO)C(=O)N[C@@H](Cc1ccccc1)C(=O)N[C@@H](Cc1ccccc1)C(=O)N[C@@H](CCCCN)C(=O)N1CCC[C@H]1C(=O)N1CCC[C@H]1C(=O)N[C@@H](CCC(=O)O)C(N)=O (Ac-PQTVAMRLRKLPDSFFKPPE-NH2)
23% | CSCC[C@H](NC(=O)[C@@H]1CCCN1C(=O)[C@@H](NC(=O)[C@@H](NC(=O)[C@H](CCC(N)=O)NC(=O)[C@@H]1CCCN1C(C)=O)[C@@H](C)O)C(C)C)C(=O)N[C@@H](C)C(=O)N[C@@H](CC(C)C)C(=O)N[C@@H](CCCNC(=N)N)C(=O)N[C@@H](CCCCN)C(=O)N[C@@H](CC(C)C)C(=O)N1CCC[C@H]1C(=O)N[C@@H](CC(=O)O)C(=O)N[C@@H](CO)C(=O)N[C@@H](Cc1ccccc1)C(=O)N[C@@H](Cc1ccccc1)C(=O)N[C@@H](CCCCN)C(=O)N1CCC[C@H]1C(=O)N1CCC[C@H]1C(=O)N[C@@H](CCC(=O)O)C(N)=O (Ac-PQTVPMALRKLPDSFFKPPE-NH2)
1.7% | CSCC[C@H](NC(=O)[C@@H]1CCCN1C(=O)[C@@H](NC(=O)[C@@H](NC(=O)[C@H](CCC(N)=O)NC(=O)[C@@H]1CCCN1C(C)=O)[C@@H](C)O)C(C)C)C(=O)N[C@@H](CCCNC(=N)N)C(=O)N[C@@H](CC(C)C)C(=O)N[C@@H](C)C(=O)N[C@@H](CCCCN)C(=O)N[C@@H](CC(C)C)C(=O)N1CCC[C@H]1C(=O)N[C@@H](CC(=O)O)C(=O)N[C@@H](CO)C(=O)N[C@@H](Cc1ccccc1)C(=O)N[C@@H](Cc1ccccc1)C(=O)N[C@@H](CCCCN)C(=O)N1CCC[C@H]1C(=O)N1CCC[C@H]1C(=O)N[C@@H](CCC(=O)O)C(N)=O (Ac-PQTVPMRLAKLPDSFFKPPE-NH2)
42% | CSCC[C@H](NC(=O)[C@@H]1CCCN1C(=O)[C@@H](NC(=O)[C@@H](NC(=O)[C@H](CCC(N)=O)NC(=O)[C@@H]1CCCN1C(C)=O)[C@@H](C)O)C(C)C)C(=O)N[C@@H](CCCNC(=N)N)C(=O)N[C@@H](CC(C)C)C(=O)N[C@@H](CCCNC(=N)N)C(=O)N[C@@H](C)C(=O)N[C@@H](CC(C)C)C(=O)N1CCC[C@H]1C(=O)N[C@@H](CC(=O)O)C(=O)N[C@@H](CO)C(=O)N[C@@H](Cc1ccccc1)C(=O)N[C@@H](Cc1ccccc1)C(=O)N[C@@H](CCCCN)C(=O)N1CCC[C@H]1C(=O)N1CCC[C@H]1C(=O)N[C@@H](CCC(=O)O)C(N)=O (Ac-PQTVPMRLRALPDSFFKPPE-NH2)
0% | CSCC[C@H](NC(=O)[C@@H]1CCCN1C(=O)[C@@H](NC(=O)[C@@H](NC(=O)[C@H](CCC(N)=O)NC(=O)[C@@H]1CCCN1C(C)=O)[C@@H](C)O)C(C)C)C(=O)N[C@@H](CCCNC(=N)N)C(=O)N[C@@H](CC(C)C)C(=O)N[C@@H](CCCNC(=N)N)C(=O)N[C@@H](CCCCN)C(=O)N[C@@H](CC(C)C)C(=O)N[C@@H](C)C(=O)N[C@@H](CC(=O)O)C(=O)N[C@@H](CO)C(=O)N[C@@H](Cc1ccccc1)C(=O)N[C@@H](Cc1ccccc1)C(=O)N[C@@H](CCCCN)C(=O)N1CCC[C@H]1C(=O)N1CCC[C@H]1C(=O)N[C@@H](CCC(=O)O)C(N)=O (Ac-PQTVPMRLRKLADSFFKPPE-NH2)

— ChEMBL document CHEMBL3351292, “Structure-Based Design and Synthesis of Potent Cyclic Peptides Inhibiting the YAP-TEAD Protein-Protein Interaction” (ACS Med Chem Lett, 2014)
